Test system: Acinetobacter baumannii strains
Assay: Antibiotic susceptibility test (CLSI disk diffusion test method, read per CLSI 2016); as to antibiotic susceptibility S/I/R: key: ‘S’ means susceptible; ‘I’ means intermediate; ‘R’ means resistant; as to antibiotic susceptibility class: key: ‘S’ means susceptible; ‘I’ means intermediate; ‘R’ means resistant; as to susceptibility category (S/I/R): key: ‘S’ means susceptible; ‘I’ means intermediate; ‘R’ means resistant
Format: cell-based
Design: antibiotic susceptibility test value / susceptibility test value (number given before S/I/R) / antibiotic susceptibility value: unit not given here

Substance: colistin
- antibiotic susceptibility class (host strain YMC14/01/C29): S
- antibiotic susceptibility test value (host strain YMC14/01/C29): 0.5
- antibiotic susceptibility class (host strain YMC14/01/IP122): S
- antibiotic susceptibility test value (host strain YMC14/01/IP122): 0.5
- antibiotic susceptibility class (host strain YMC14/01/L8): S
- antibiotic susceptibility test value (host strain YMC14/01/L8): 0.5
- antibiotic susceptibility class (host strain YMC14/01/P31): S
- antibiotic susceptibility test value (host strain YMC14/01/P31): 0.5
- antibiotic susceptibility class (host strain YMC14/01/P117): S
- antibiotic susceptibility test value (host strain YMC14/01/P117): 0.5
- antibiotic susceptibility class (host strain YMC14/01/P224): S
- antibiotic susceptibility test value (host strain YMC14/01/P224): 0.5
- antibiotic susceptibility class (host strain YMC14/01/P727): S
- antibiotic susceptibility test value (host strain YMC14/01/P727): 0.5
- antibiotic susceptibility class (host strain YMC14/01/P728): S
- antibiotic susceptibility test value (host strain YMC14/01/P728): 0.5
- antibiotic susceptibility class (host strain YMC14/01/R130): S
- antibiotic susceptibility test value (host strain YMC14/01/R130): 0.5
- antibiotic susceptibility class (host strain YMC14/01/R160): S
- antibiotic susceptibility test value (host strain YMC14/01/R160): 0.5
- antibiotic susceptibility class (host strain YMC14/01/R198): S
- antibiotic susceptibility test value (host strain YMC14/01/R198): 0.5
- antibiotic susceptibility class (host strain YMC14/01/R257): S
- antibiotic susceptibility test value (host strain YMC14/01/R257): 0.5
- antibiotic susceptibility class (host strain YMC14/01/R270): S
- antibiotic susceptibility test value (host strain YMC14/01/R270): 0.5
- antibiotic susceptibility class (host strain YMC14/01/R324): S
- antibiotic susceptibility test value (host strain YMC14/01/R324): 0.5
- antibiotic susceptibility class (host strain YMC14/01/R443): S
- antibiotic susceptibility test value (host strain YMC14/01/R443): 0.5
- antibiotic susceptibility class (host strain YMC14/01/R451): S
- antibiotic susceptibility test value (host strain YMC14/01/R451): 0.5
- antibiotic susceptibility class (host strain YMC14/01/R560): S
- antibiotic susceptibility test value (host strain YMC14/01/R560): 0.5
- antibiotic susceptibility class (host strain YMC14/01/R617): S
- antibiotic susceptibility test value (host strain YMC14/01/R617): 0.5
- antibiotic susceptibility class (host strain YMC14/01/R671): S
- antibiotic susceptibility test value (host strain YMC14/01/R671): 0.5
- antibiotic susceptibility class (host strain YMC14/01/R732): S
- antibiotic susceptibility test value (host strain YMC14/01/R732): 0.5
- antibiotic susceptibility class (host strain YMC14/01/R767): S
- antibiotic susceptibility test value (host strain YMC14/01/R767): 0.5
- antibiotic susceptibility class (host strain YMC14/01/R904): S
- antibiotic susceptibility test value (host strain YMC14/01/R904): 0.5
- antibiotic susceptibility class (host strain YMC14/01/R905): S
- antibiotic susceptibility test value (host strain YMC14/01/R905): 0.5
- antibiotic susceptibility class (host strain YMC14/01/R921): S
- antibiotic susceptibility test value (host strain YMC14/01/R921): 0.5
- antibiotic susceptibility class (host strain YMC14/01/R941): S
- antibiotic susceptibility test value (host strain YMC14/01/R941): 0.5
- antibiotic susceptibility class (host strain YMC14/01/R958): S
- antibiotic susceptibility test value (host strain YMC14/01/R958): 0.5
- antibiotic susceptibility class (host strain YMC14/01/R1006): S
- antibiotic susceptibility test value (host strain YMC14/01/R1006): 0.5
- antibiotic susceptibility class (host strain YMC14/01/R1199): S
- antibiotic susceptibility test value (host strain YMC14/01/R1199): 0.5
- antibiotic susceptibility class (host strain YMC14/01/R1659): S
- antibiotic susceptibility test value (host strain YMC14/01/R1659): 0.5
- antibiotic susceptibility class (host strain YMC14/01/R1722): S
- antibiotic susceptibility test value (host strain YMC14/01/R1722): 0.5
- antibiotic susceptibility class (host strain YMC14/01/R1752): S
- antibiotic susceptibility test value (host strain YMC14/01/R1752): 0.5
- antibiotic susceptibility class (host strain YMC14/01/R2429): S
- antibiotic susceptibility test value (host strain YMC14/01/R2429): 0.5
- antibiotic susceptibility class (host strain YMC14/01/R2572): S
- antibiotic susceptibility test value (host strain YMC14/01/R2572): 0.5
- antibiotic susceptibility class (host strain YMC14/01/R2855): S
- antibiotic susceptibility test value (host strain YMC14/01/R2855): 0.5
- antibiotic susceptibility class (host strain YMC14/01/R2945): S
- antibiotic susceptibility test value (host strain YMC14/01/R2945): 0.5
- antibiotic susceptibility class (host strain YMC14/01/R3007): S
- antibiotic susceptibility test value (host strain YMC14/01/R3007): 0.5
- antibiotic susceptibility class (host strain YMC14/01/R3129): S
- antibiotic susceptibility test value (host strain YMC14/01/R3129): 0.5
- antibiotic susceptibility class (host strain YMC14/01/R3317): S
- antibiotic susceptibility test value (host strain YMC14/01/R3317): 0.5
- antibiotic susceptibility class (host strain YMC14/01/R3474): S
- antibiotic susceptibility test value (host strain YMC14/01/R3474): 0.5
- antibiotic susceptibility class (host strain YMC14/01/R3574): S
- antibiotic susceptibility test value (host strain YMC14/01/R3574): 0.5
- antibiotic susceptibility class (host strain YMC14/01/U313): S
- antibiotic susceptibility test value (host strain YMC14/01/U313): 0.5
- antibiotic susceptibility class (host strain YMC14/01/U318): S
- antibiotic susceptibility test value (host strain YMC14/01/U318): 0.5
- antibiotic susceptibility class (host strain YMC14/02/L18): S
- antibiotic susceptibility test value (host strain YMC14/02/L18): 0.5
- antibiotic susceptibility class (host strain YMC14/02/P47): S
- antibiotic susceptibility test value (host strain YMC14/02/P47): 0.5
- antibiotic susceptibility class (host strain YMC14/02/R1860): S
- antibiotic susceptibility test value (host strain YMC14/02/R1860): 0.5
- antibiotic susceptibility class (host strain YMC14/02/R2417): S
- antibiotic susceptibility test value (host strain YMC14/02/R2417): 0.5
- antibiotic susceptibility class (host strain YMC14/02/R2599): S
- antibiotic susceptibility test value (host strain YMC14/02/R2599): 0.5
- antibiotic susceptibility class (host strain YMC14/02/R2668): S
- antibiotic susceptibility test value (host strain YMC14/02/R2668): 0.5
- antibiotic susceptibility class (host strain YMC14/02/R2758): S
- antibiotic susceptibility test value (host strain YMC14/02/R2758): 0.5
- antibiotic susceptibility class (host strain YMC14/02/R2781): S
- antibiotic susceptibility test value (host strain YMC14/02/R2781): 0.5
- antibiotic susceptibility class (host strain YMC14/02/R3106): S
- antibiotic susceptibility test value (host strain YMC14/02/R3106): 0.5
- antibiotic susceptibility class (host strain YMC14/02/R3419): S
- antibiotic susceptibility test value (host strain YMC14/02/R3419): 0.5
- antibiotic susceptibility class (host strain YMC14/02/U1607): S
- antibiotic susceptibility test value (host strain YMC14/02/U1607): 0.5
- antibiotic susceptibility class (host strain YMC14/03/L9): S
- antibiotic susceptibility test value (host strain YMC14/03/L9): 0.5
- antibiotic susceptibility class (host strain YMC14/03/P471): S
- antibiotic susceptibility test value (host strain YMC14/03/P471): 0.5
- antibiotic susceptibility class (host strain YMC14/03/R122): S
- antibiotic susceptibility test value (host strain YMC14/03/R122): 0.5
- antibiotic susceptibility class (host strain YMC14/03/R217): S
- antibiotic susceptibility test value (host strain YMC14/03/R217): 0.5
- antibiotic susceptibility class (host strain YMC14/03/R380): S
- antibiotic susceptibility test value (host strain YMC14/03/R380): 0.5
- antibiotic susceptibility class (host strain YMC14/03/R618): S
- antibiotic susceptibility test value (host strain YMC14/03/R618): 0.5
- antibiotic susceptibility class (host strain YMC14/03/R2144): S
- antibiotic susceptibility test value (host strain YMC14/03/R2144): 0.5
- antibiotic susceptibility class (host strain YMC14/03/U4616): S
- antibiotic susceptibility test value (host strain YMC14/03/U4616): 0.5
- antibiotic susceptibility class (host strain YMC14/04/R1078): S
- antibiotic susceptibility test value (host strain YMC14/04/R1078): 0.5
- antibiotic susceptibility class (host strain YMC14/04/R1080): S
- antibiotic susceptibility test value (host strain YMC14/04/R1080): 0.5
- antibiotic susceptibility S/I/R (host strain YMC14/06/R2359): R
- antibiotic susceptibility value (host strain YMC14/06/R2359): 16
- susceptibility category (S/I/R) (host strain YMC14/06/R2359): R
- susceptibility test value (number given before S/I/R) (host strain YMC14/06/R2359): 16
- antibiotic susceptibility S/I/R (host strain YMC14/08/R1169): R
- antibiotic susceptibility value (host strain YMC14/08/R1169): 16
- susceptibility category (S/I/R) (host strain YMC14/08/R1169): R
- susceptibility test value (number given before S/I/R) (host strain YMC14/08/R1169): 16
- antibiotic susceptibility S/I/R (host strain YMC14/08/T90): R
- antibiotic susceptibility value (host strain YMC14/08/T90): 16
- susceptibility category (S/I/R) (host strain YMC14/08/T90): R
- susceptibility test value (number given before S/I/R) (host strain YMC14/08/T90): 16
- antibiotic susceptibility S/I/R (host strain YMC15/02/R436): R
- antibiotic susceptibility value (host strain YMC15/02/R436): 8
- susceptibility category (S/I/R) (host strain YMC15/02/R436): R
- susceptibility test value (number given before S/I/R) (host strain YMC15/02/R436): 8
- antibiotic susceptibility S/I/R (host strain YMC15/02/T28): R
- antibiotic susceptibility value (host strain YMC15/02/T28): 16
- susceptibility category (S/I/R) (host strain YMC15/02/T28): R
- susceptibility test value (number given before S/I/R) (host strain YMC15/02/T28): 16
- antibiotic susceptibility S/I/R (host strain YMC15/03/R1604): R
- antibiotic susceptibility value (host strain YMC15/03/R1604): 16
- susceptibility category (S/I/R) (host strain YMC15/03/R1604): R
- susceptibility test value (number given before S/I/R) (host strain YMC15/03/R1604): 16
- antibiotic susceptibility S/I/R (host strain YMC15/09/R1869): R
- antibiotic susceptibility value (host strain YMC15/09/R1869): 16
- susceptibility category (S/I/R) (host strain YMC15/09/R1869): R
- susceptibility test value (number given before S/I/R) (host strain YMC15/09/R1869): 16
- antibiotic susceptibility S/I/R (host strain YMC16/01/P11): S
- antibiotic susceptibility value (host strain YMC16/01/P11): 0.5
- susceptibility category (S/I/R) (host strain YMC16/01/P11): S
- susceptibility test value (number given before S/I/R) (host strain YMC16/01/P11): 0.5
- antibiotic susceptibility S/I/R (host strain YMC16/01/R123): S
- antibiotic susceptibility value (host strain YMC16/01/R123): 0.5
- susceptibility category (S/I/R) (host strain YMC16/01/R123): S
- susceptibility test value (number given before S/I/R) (host strain YMC16/01/R123): 0.5
- antibiotic susceptibility S/I/R (host strain YMC16/01/R198): S
- antibiotic susceptibility value (host strain YMC16/01/R198): 0.5
- susceptibility category (S/I/R) (host strain YMC16/01/R198): S
- susceptibility test value (number given before S/I/R) (host strain YMC16/01/R198): 0.5
- antibiotic susceptibility S/I/R (host strain YMC16/01/R353): S

— patent US20240000872A1, “NOVEL BACTERIOPHAGE THAT LYSES ACINETOBACTER GENUS BACTERIA HAVING RESISTANCE TO ANTIBIOTICS” (priority 2020, published 2024)
